Measurements published in patent publication US12187704B2, “Triazine derivatives and methods of use thereof” (Ascletis BioScience Co., Ltd., priority 2022, dated 2025).
Where two headings read alike, the source gives them in different places.

Assays:
[1] = test system: SARS-COV-2 Omicron hCoV-19/USA/MD HP20874/2021 (B.1.1.529) strain; assay: In vitro antiviral activity against SARS-COV-2 Omicron B.1.1.529 in Calu-3 cells; type: cell-based; settings: Severe acute respiratory syndrome coronavirus 2, Calu-3, 48 h
[2] = test system: hCoV-19/USA/Chicago IL/2022 (BA.5.2); assay: In vitro antiviral activity against SARS-COV-2 BA.5.2 in Calu-3 cells; type: cell-based; settings: Severe acute respiratory syndrome coronavirus 2, Calu-3, 48 h
[3] = in vivo; settings: rat
Description: (§1) Oral administration: The compound was administered with a volume ratio of Solutol:PEG400:Tween80:Saline=10:40:2:48 (v/v/v) at a dose of 10 mg/kg. At 0.25 h, 0.5 h, 1 h, 2 h, 4 h, 8 h, 10 h, 12 h and 24 h after drug administration, blood was serially collected from the fundus venous plexus in EP tubes containing EDTA, centrifuged at 8000 rpm/min for 5 min and then the upper layer of plasma was frozen at −80° C. and stored for LC-MS/MS analysis.
(§2) Intravenous administration: the compound was administered with a volume ratio of 10% DMSO/30% PEG400/60% water (v/v/v) at a dose of 1 mg/kg). At 0.0833 h, 0.25 h, 0.5 h, 1 h, 2 h, 4 h, 8 h, 12 h and 24 h after drug administration, blood was serially collected from the fundic venous plexus in EP tubes containing EDTA, centrifuged at 8000 rpm/min for 5 min and then the upper layer of plasma was frozen at −80° C. and stored for LC-MS/MS analysis.
(§3) The pharmacokinetic parameters were calculated from the blood concentration-time data obtained from the tests using WinNonlin software.

[4] = in vivo; settings: monkey, crab-eating monkeys, plasma
Description: as §1, with “The compounds were” for “The compound was”, “Solutol:PEG400:Tween80:Saline=10:40:2:48 (v/v/v/v)” for “Solutol:PEG400:Tween80:Saline=10:40:2:48 (v/v/v)”, “of 2” for “of 10”
as §2, with “with” for “with a volume ratio of”
as §3

[5] = intravenous, 1 mg/kg, read-out: Intravenous injection AUClast
[6] = oral, 2 mg/kg, read-out: Oral AUClast

| Structure (SMILES) | EC50 [1] [nM] | EC50 [2] [nM] | AUC(0-t) ([3]; iv, 1 mg/kg) [ng·h/mL] | AUC(0-t) ([3]; po, 10 mg/kg) [ng·h/mL] | AUC(0-t) [4, 5] [ng·h/mL] | AUC(0-t) [4, 6] [ng·h/mL] |
| --- | --- | --- | --- | --- | --- | --- |
| Cn1cc2cc(Nc3nc(=O)n(-c4cncnc4)c(=O)n3Cc3cc(F)c(F)cc3F)c(Cl)cc2n1 [Compound 1, 6-((6-chloro-2-methyl-2H-indazol-5-yl)amino)-3-(pyrimidin-5-yl)-1-(2,4,5-trifluorobenzyl)-1,3,5-triazine-2,4(1H,3H)-dione] | 195 | 323 |  |  |  |  |
| Cn1cc2cc(Nc3nc(=O)n(-c4cc(F)cnc4Cl)c(=O)n3Cc3cc(F)c(F)cc3F)c(Cl)cc2n1 [Compound 2] | 98 | 156 |  |  |  |  |
| Cn1cc2cc(Nc3nc(=O)n(-c4cc(Cl)cnc4Cl)c(=O)n3Cc3cc(F)c(F)cc3F)c(Cl)cc2n1 [Compound 3] | 84 | 149 |  |  |  |  |
| O=c1nc(Nc2cc3cn(CCO)nc3cc2Cl)n(Cc2cc(F)c(F)cc2F)c(=O)n1-c1cncc(Cl)c1 [Compound 4] | 13 | 18 | 2040 | 10800 | 10300 | 15200 |
| [2H]C([2H])([2H])n1cc2cc(Nc3nc(=O)n(-c4cncc(Cl)c4)c(=O)n3Cc3cc(F)c(F)cc3F)c(Cl)cc2n1 [Compound 5] | 9 | 15 | 19000 | 224000 | 38400 | 60700 |
| [2H]C([2H])([2H])n1cc2cc(Nc3nc(=O)n(-c4cncc(Cl)c4)c(=O)n3Cc3cc(F)c(F)cc3F)c(Br)cc2n1 [Compound 6] | 10 | 20 | 19500 | 205000 | 35700 | 59000 |
